Measurements from ChEMBL document CHEMBL4414594, “Hepatoprotective Tetrahydrobenzocyclooctabenzofuranone Lignans from Kadsura longipedunculata” (2019).
Activity calls are given as the source filed them. No cut-off for these calls is given here.

Test system: HepG2
Test: Hepatoprotective activity against APAP-induced cytotoxicity in human HepG2 cells assessed as cell survival rate at 10 uM incubated for 48 hrs by MTT assay relative to control
Format: functional

Q: With COc1c(O[C@@H]2O[C@H](CO)[C@@H](O)[C@H](O)[C@H]2O)cc2c(c1O)-c1c(cc3c(c1OC)OCO3)[C@H](O)[C@H](C)[C@H](C)C2 as the molecule, how does the Activity read?
A: inactive

Q: For COC1=C(OC)C(=O)[C@]23COc4c5c(cc(c42)[C@H](OC(=O)/C=C/c2ccccc2)[C@H](C)[C@](C)(O)CC3=C1)OCO5, which Activity is on record?
A: 50.8%

Q: For COC1=C(OC)C(=O)[C@]23COc4c5c(cc(c42)[C@H](OC(=O)/C=C/c2ccccc2)[C@H](C)[C@@](C)(O)CC3=C1)OCO5, which Activity is on record?
A: 37%

Q: For COC(=O)c1cc(OC)c2c(c1-c1c(CO)cc(OC)c3c1OCO3)OCO2 [BICYCLOL], which Activity is on record?
A: 49%

Q: How did the Activity turn out when COc1c(O)cc2c(c1OC)-c1c(cc(O)c(OC)c1OC)[C@H](OC(=O)c1ccccc1)[C@H](C)[C@H](C)C2 was run?
A: inactive

Test system: Peritoneal macrophage
Test: Antiinflammatory activity in C57BL/6J mouse peritoneal macrophages assessed as inhibition of LPS-induced nitric oxide production at 10 uM incubated for 24 hrs in presence of LPS by Griess test relative to control
Format: functional

Q: How did the inhibition at 10 µM turn out when COC1=C(OC)C(=O)[C@]23COc4c5c(cc(c42)[C@H](OC(=O)/C=C/c2ccccc2)[C@H](C)[C@](C)(O)CC3=C1)OCO5 was run?
A: 74.9%

Q: For C/C=C/c1ccc(O[C@H](C)[C@@H](O)c2cc(O)c(OC)c(OC)c2)c(OC)c1, which inhibition at 10 µM is on record?
A: 89.8%

Q: Which inhibition at 10 µM does the source give for C/C=C(/C)C(=O)O[C@H]1c2cc(O)c(O[C@@H]3O[C@H](CO)[C@@H](O)[C@H](O)[C@H]3O)c3c2[C@@]2(CO3)C(=O)C(OC)=C(OC)C=C2C[C@@H](C)[C@H]1C here?
A: 55.1%
